Assays:
RXF 393 = assay: Growth inhibition of human RXF393 cells assessed as cell growth at 10^-4 M incubated for 48 hrs by sulforhodamine B assay relative to control; format: functional; conditions: RXF 393, 48 h, read-out: Activity
HCT-15 = assay: Growth of human HCT15 cells at 10 uM incubated for 48 hrs by sulforhodamine B assay relative to control; conditions: HCT-15, 48 h
U-251 = assay: Growth of human U251 cells at 10 uM incubated for 48 hrs by sulforhodamine B assay relative to control; conditions: U-251, 48 h
DU-145 = assay: Growth inhibition of human DU145 cells assessed as cell growth at 10^-4 M incubated for 48 hrs by sulforhodamine B assay relative to control; format: functional; conditions: DU-145, 48 h, read-out: Activity
KM12 [1] = assay: Growth inhibition of human KM12 cells assessed as cell growth at 10^-4 M incubated for 48 hrs by sulforhodamine B assay relative to control; format: functional; conditions: KM12, 48 h, read-out: Activity
CCRF-CEM = assay: Growth of human CCRF-CEM cells at 10 uM incubated for 48 hrs by sulforhodamine B assay relative to control
Hs-578T = assay: Growth inhibition of human Hs 578T cells at 10 uM incubated for 48 hrs by sulforhodamine B assay relative to control; format: functional; conditions: values are per cent of control
HCC 2998 = assay: Growth of human HCC2998 cells at 10 uM incubated for 48 hrs by sulforhodamine B assay relative to control; conditions: HCC 2998, 48 h
RPMI-8226 = assay: Growth of human RPMI8226 cells at 10 uM incubated for 48 hrs by sulforhodamine B assay relative to control; conditions: RPMI-8226, 48 h
Malme-3M = assay: Growth of human MALME-3M cells at 10 uM incubated for 48 hrs by sulforhodamine B assay relative to control
786-0 = assay: Growth inhibition of human 786-0 cells at 10 uM incubated for 48 hrs by sulforhodamine B assay relative to control; format: functional; conditions: 786-0, 48 h, values are per cent of control
A498 = assay: Growth inhibition of human A498 cells at 10 uM incubated for 48 hrs by sulforhodamine B assay relative to control; format: functional; conditions: A498, 48 h, values are per cent of control
MDA-MB-435 = assay: Growth of human MDA-MB-435 cells at 10 uM incubated for 48 hrs by sulforhodamine B assay relative to control; conditions: MDA-MB-435, 48 h
OVCAR-5 = assay: Growth of human OVCAR5 cells at 10 uM incubated for 48 hrs by sulforhodamine B assay relative to control; conditions: OVCAR-5, 48 h
OVCAR-8 [2] = assay: Growth of human OVCAR8 cells at 10 uM incubated for 48 hrs by sulforhodamine B assay relative to control; conditions: OVCAR-8, 48 h
SNB-19 = assay: Growth of human SNB19 cells at 10 uM incubated for 48 hrs by sulforhodamine B assay relative to control; conditions: SNB-19, 48 h
NCI-H460 = assay: Growth inhibition of human NCI-H460 cells at 10 uM incubated for 48 hrs by sulforhodamine B assay relative to control; format: functional; conditions: NCI-H460, 48 h, values are per cent of control
M14 [3] = assay: Growth inhibition of human M14 cells assessed as cell growth at 10^-8 M incubated for 48 hrs by sulforhodamine B assay relative to control; format: functional; conditions: M14, 48 h, read-out: Activity
M14 [4] = assay: Growth of human M14 cells at 10 uM incubated for 48 hrs by sulforhodamine B assay relative to control; conditions: M14, 48 h
SN12C = assay: Growth inhibition of human SN12C cells at 10 uM incubated for 48 hrs by sulforhodamine B assay relative to control; format: functional; conditions: values are per cent of control
OVCAR-4 = assay: Growth inhibition of human OVCAR4 cells assessed as cell growth at 10^-6 M incubated for 48 hrs by sulforhodamine B assay relative to control; format: functional; conditions: OVCAR-4, 48 h, read-out: Activity
A549 = assay: Growth of human A549/ATCC cells at 10 uM incubated for 48 hrs by sulforhodamine B assay relative to control; conditions: A549, 48 h
KM12 [5] = assay: Growth of human KM12 cells at 10 uM incubated for 48 hrs by sulforhodamine B assay relative to control; conditions: KM12, 48 h
BT-549 = assay: Growth inhibition of human BT549 cells at 10 uM incubated for 48 hrs by sulforhodamine B assay relative to control; format: functional; conditions: BT-549, 48 h, values are per cent of control
MDA-MB-468 = assay: Growth inhibition of human MDA-MB-468 cells at 10 uM incubated for 48 hrs by sulforhodamine B assay relative to control; format: functional; conditions: MDA-MB-468, 48 h, values are per cent of control
SK-MEL-2 [6] = assay: Growth inhibition of human SK-MEL-2 cells assessed as cell growth at 10^-6 M incubated for 48 hrs by sulforhodamine B assay relative to control; format: functional; conditions: SK-MEL-2, 48 h, read-out: Activity
ACHN = assay: Growth inhibition of human ACHN cells at 10 uM incubated for 48 hrs by sulforhodamine B assay relative to control; format: functional; conditions: values are per cent of control
SK-MEL-2 [7] = assay: Growth of human SK-MEL-2 cells at 10 uM incubated for 48 hrs by sulforhodamine B assay relative to control; conditions: SK-MEL-2, 48 h
MOLT-4 = assay: Growth of human MOLT4 cells at 10 uM incubated for 48 hrs by sulforhodamine B assay relative to control; conditions: MOLT-4, 48 h
HOP-62 = assay: Growth of human HOP62 cells at 10 uM incubated for 48 hrs by sulforhodamine B assay relative to control; conditions: HOP-62, 48 h
OVCAR-8 [8] = assay: Growth inhibition of human OVCAR8 cells assessed as cell growth at 10^-6 M incubated for 48 hrs by sulforhodamine B assay relative to control; format: functional; conditions: OVCAR-8, 48 h, read-out: Activity
NCI-H226 = assay: Growth inhibition of human NCI-H226 cells at 10 uM incubated for 48 hrs by sulforhodamine B assay relative to control; format: functional; conditions: NCI-H226, 48 h, values are per cent of control
SK-MEL-5 = assay: Growth of human SK-MEL-5 cells at 10 uM incubated for 48 hrs by sulforhodamine B assay relative to control; conditions: SK-MEL-5, 48 h

Structure (SMILES)	growth, % of control at 10 µM (HCT-15) [%]	growth, % of control at 10 µM (U-251) [%]	growth, % of control at 10 µM (CCRF-CEM) [%]	growth, % of control at 10 µM (Hs-578T) [%]	growth, % of control at 10 µM (HCC 2998) [%]	growth, % of control at 10 µM (RPMI-8226) [%]	growth, % of control at 10 µM (Malme-3M) [%]	growth, % of control at 10 µM (786-0) [%]	growth, % of control at 10 µM (A498) [%]	growth, % of control at 10 µM (MDA-MB-435) [%]	growth, % of control at 10 µM (OVCAR-5) [%]	growth, % of control at 10 µM (OVCAR-8 [2]) [%]	growth, % of control at 10 µM (SNB-19) [%]	growth, % of control at 10 µM (NCI-H460) [%]	growth, % of control at 10 µM (M14 [4]) [%]	growth, % of control at 10 µM (SN12C) [%]	growth, % of control at 10 µM (A549) [%]	growth, % of control at 10 µM (KM12 [5]) [%]	growth, % of control at 10 µM (BT-549) [%]	growth, % of control at 10 µM (MDA-MB-468) [%]	also measured
CCS/C(Nc1ccccc1)=C(\C#N)C(=O)N/N=C\c1ccc(Cl)cc1Cl	19.9	19.1	9.86	-6.44	48.4	9.68	38.1	31.8	-2.1	-34.5	72.5	28.6	19.6	8.05	21	34.5	38.3	28	45.4	19.6	growth at 100 µM (RXF 393): -22%; growth at 100 µM (DU-145): 8%; growth at 100 µM (KM12 [1]): 22%; growth at 0.01 µM (M14 [3]): 101%; growth at 1 µM (OVCAR-4): 86%; growth at 1 µM (SK-MEL-2 [6]): 86%; growth, % of control at 10 µM (ACHN): 38.2%; growth, % of control at 10 µM (SK-MEL-2 [7]): 28.3%; growth, % of control at 10 µM (MOLT-4): 18.3%; growth, % of control at 10 µM (HOP-62): 36.7%; growth at 1 µM (OVCAR-8 [8]): 99%; growth, % of control at 10 µM (NCI-H226): 37.7%; growth, % of control at 10 µM (SK-MEL-5): 12.4%
CCS/C(Nc1ccccc1)=C(\C#N)C(=O)Nc1ccc(OC)cc1	16.9	16.6	8.29	27.4	55.2	25.2	55.5	39.5	22.7	-47.9	63.1	31.2	23.1	10.1	15.2	37.8	34.6	31	40.5	-2.63	growth at 100 µM (RXF 393): -20%; growth at 100 µM (DU-145): -6%; growth at 100 µM (KM12 [1]): 7%; growth at 0.01 µM (M14 [3]): 102%; growth at 1 µM (OVCAR-4): 88%; growth at 1 µM (SK-MEL-2 [6]): 86%; growth, % of control at 10 µM (ACHN): 51.9%; growth, % of control at 10 µM (SK-MEL-2 [7]): -0.34%; growth, % of control at 10 µM (MOLT-4): 10.1%; growth, % of control at 10 µM (HOP-62): 34.2%; growth at 1 µM (OVCAR-8 [8]): 98%; growth, % of control at 10 µM (NCI-H226): 57.9%; growth, % of control at 10 µM (SK-MEL-5): 17.8%
CCS/C(Nc1ccccc1)=C(\C#N)C(=O)N/N=C\c1ccco1	106	94	91.2	101	107	103	95.9	100	77.3	105	106	92.1	101	110	99.2	97.7	86.7	104	109	91.4	growth, % of control at 10 µM (ACHN): 105%; growth, % of control at 10 µM (SK-MEL-2 [7]): 94.3%; growth, % of control at 10 µM (MOLT-4): 76.3%; growth, % of control at 10 µM (HOP-62): 97.4%; growth, % of control at 10 µM (NCI-H226): 95.2%; growth, % of control at 10 µM (SK-MEL-5): 101%
